In data set [1] the test system is E16 mouse hippocampal neurons. As to the kind of experiment: Hippocampal neuron survival (ViaLight assay and Tuj1-positive cell counts). It counts as cell-based. The following applies: for neurotrophic activity in the presence of function-blocking anti-TrkB^ECD antibody: compounds 1000 nM, BDNF 20 ng/ml, vs control antibody. An excerpt:
To further confirm that PTX-BD4-3 promotes biologically relevant activity through TrkB, we examined the effect of PTX-BD4-3 on survival of cultured hippocampal neurons, using two different methods (Fig. 3A-C). […] It would be expected that although there is a correlation between survival status and mitochondrial metabolic status, one could have some degree of variability in metabolic function for a given level of cell survival. […] Because the plateau effect of PTX-BD4-3 on survival was observed between 500 nM and 1000 nM, we chose 1000 nM as a standard concentration for subsequent mechanistic studies.
Fig. 3. […] (A) Fluorescence photomicrographs (original magnification, ×40) of Tuj1-immunostained E16 mouse hippocampal neuronal cultures treated with culture medium (CM) alone, BDNF, LM22A-4 or PTX-BD4-3 for 48 h. Scale bar: 10 μm. (B) Neuron survival dose-response curves for LM22A-4 and PTX-BD4-3 were generated using the ViaLight assay; data were normalized to survival achieved with 20 ng/ml (∼0.7 nM) BDNF and compared with wells receiving culture medium medium (CM) alone. n=10-32 wells per group derived from four to five independent experiments. (C) Survival analysis of hippocampal neurons treated with either 20 ng/ml BDNF, 500 nM or 1000 nM LM22A-4 or 500 nM or 1000 nM PTX-BD4-3 for 48 h. Tuj1-positive cells counts were normalized to the survival achieved with BDNF and compared with wells treated with […]. n=32-40 wells per group derived from six independent experiments. Statistical significance in B and C was determined by one-way ANOVA with Dunnett's post hoc multiple comparison tests. *P≤0.05, ^§P≤0.001 compared to control (CM). (D) Survival of hippocampal neurons treated with CM, 20ng/ml BDNF (B), 1000 nM LM22A-4 or 1000 nM PTX-BD4-3 with or without anti-TrkB antibody (Bab) or non-immune serum (non). n=37-42 wells per group derived from five independent experiments. *P≤0.05, **P≤0.01, ***P≤0.001 (non vs Bab), Mann-Whitney test; *P≤0.05, ^ψP≤0.01, ^§P≤0.001 (compared to CM), one-way ANOVA with Dunnett's post hoc multiple comparison test.
Hippocampal neuron cultures were prepared from E16 CF1 mouse fetuses as described previously ([Yang et al., 2006]). Under the low-density conditions used here, neuronal survival is dependent, in part, on addition of exogenous neurotrophins ([Yang et al., 2008]; [Walter et al., 2011]). LM22A-4 and PTX-BD4-3 were dissolved in water at a stock concentration of 10 mM prior to dilution (1:10,000) in culture medium. Cell survival following a 48-h exposure to BDNF, LM22A-4 or PTX-BD4-3 was quantified by either counting β-tubulin III-positive cell bodies ([Massa et al., 2006]; [Walter et al., 2011]) or by the ViaLight Assay described above.

For a further data set, the system named is 8 different CYP enzymes. As to the kind of experiment: CYP inhibition (Cerep). It counts as in vitro ADME. The note with it: 10µM. As for the experimental part: (§1) To evaluate the relative binding specificity of LM22A-4 ([Massa et al., 2010]) and PTX-BD4-3, binding to a broad range of 55 pharmacologically relevant receptors, including numerous neurotransmitter and G-protein coupled receptors was assessed using standard radioligand competition binding assays (ExpressSProfile) performed by Cerep, Inc. (Seattle, WA, USA). In addition, ADME-Tox analysis was performed by Cerep, Inc. All experimental conditions are described on the Cerep website (www.cerep.fr).
(§2) Aqueous Human CYP inhibition (10µM) AMES hERG solubility hepatocyte DNA testing
(§3) (µM) metabolic mutagenesis
(§4) PTX‐BD4‐3 200 >60 negative negative negative
Table S2. Solubility, metabolism and toxicity screens for LM22A-4 […]
and PTX-BD4-3. […]
Both compounds were negative in 3 different assays of in vitro toxicity; inhibition of 8 different CYP enzymes at 10 µM, DNA mutagenesis in 4 different strains of Salmonella typhimurium at 5, 10, 50 and 100 µM and cardiac toxicity, measured by […] of hERG channels at 0.1, 1 and 10 µM, where >50% inhibition of the tail current indicates significant cardiac toxicity.
(also on this page, place not known: Disease Models & Mechanisms: doi:10.1242/dmm.044685: Supplementary information Disease Models & Mechanisms • Supplementary information)

Data set [2] has as its system 4 different strains of Salmonella typhimurium. As to the kind of experiment: AMES DNA mutagenesis (Cerep). The data set is classed as cell-based. The note with it: 5, 10, 50 and 100 µM; 4 strains. As for the experimental part:
as §1, §2, §3, §4
(§5) Table S2. Solubility, metabolism and toxicity screens for LM22A-4 and PTX-BD4-3. Standardized assays of solubility, metabolic stability and in vitro toxicity were performed to further evaluate the potential of PTX-BD4-3 as a lead candidate molecule for the treatment of Rett syndrome, and to compare its profile to that of the parent compound LM22A-4. Aqueous solubility of both compounds, which is used as a surrogate measure of absorption, was at or near the assay maximum of 200 µM. The metabolic stability of both compounds at 10 µM was evaluated at 5 different time points in […] and found to be >60 min, indicating favorable stability. […]

A further data set concerns the target T1, hERG channels (Homo sapiens, UniProt Q12809).
T1 construct: Cerep, Inc. (contract screen)
As to the kind of experiment: hERG testing (Cerep). The data set is classed as cell-based. The following applies: 0.1, 1 and 10 µM; >50% inhibition of the tail current = significant. As for the experimental part:
as §1, §2, §3, §4, §5
Background: Block of hERG is tested as a sign of cardiac risk.

“Also recorded” adds a separate entry of the source.

T1 sequence (Q12809 whole entry): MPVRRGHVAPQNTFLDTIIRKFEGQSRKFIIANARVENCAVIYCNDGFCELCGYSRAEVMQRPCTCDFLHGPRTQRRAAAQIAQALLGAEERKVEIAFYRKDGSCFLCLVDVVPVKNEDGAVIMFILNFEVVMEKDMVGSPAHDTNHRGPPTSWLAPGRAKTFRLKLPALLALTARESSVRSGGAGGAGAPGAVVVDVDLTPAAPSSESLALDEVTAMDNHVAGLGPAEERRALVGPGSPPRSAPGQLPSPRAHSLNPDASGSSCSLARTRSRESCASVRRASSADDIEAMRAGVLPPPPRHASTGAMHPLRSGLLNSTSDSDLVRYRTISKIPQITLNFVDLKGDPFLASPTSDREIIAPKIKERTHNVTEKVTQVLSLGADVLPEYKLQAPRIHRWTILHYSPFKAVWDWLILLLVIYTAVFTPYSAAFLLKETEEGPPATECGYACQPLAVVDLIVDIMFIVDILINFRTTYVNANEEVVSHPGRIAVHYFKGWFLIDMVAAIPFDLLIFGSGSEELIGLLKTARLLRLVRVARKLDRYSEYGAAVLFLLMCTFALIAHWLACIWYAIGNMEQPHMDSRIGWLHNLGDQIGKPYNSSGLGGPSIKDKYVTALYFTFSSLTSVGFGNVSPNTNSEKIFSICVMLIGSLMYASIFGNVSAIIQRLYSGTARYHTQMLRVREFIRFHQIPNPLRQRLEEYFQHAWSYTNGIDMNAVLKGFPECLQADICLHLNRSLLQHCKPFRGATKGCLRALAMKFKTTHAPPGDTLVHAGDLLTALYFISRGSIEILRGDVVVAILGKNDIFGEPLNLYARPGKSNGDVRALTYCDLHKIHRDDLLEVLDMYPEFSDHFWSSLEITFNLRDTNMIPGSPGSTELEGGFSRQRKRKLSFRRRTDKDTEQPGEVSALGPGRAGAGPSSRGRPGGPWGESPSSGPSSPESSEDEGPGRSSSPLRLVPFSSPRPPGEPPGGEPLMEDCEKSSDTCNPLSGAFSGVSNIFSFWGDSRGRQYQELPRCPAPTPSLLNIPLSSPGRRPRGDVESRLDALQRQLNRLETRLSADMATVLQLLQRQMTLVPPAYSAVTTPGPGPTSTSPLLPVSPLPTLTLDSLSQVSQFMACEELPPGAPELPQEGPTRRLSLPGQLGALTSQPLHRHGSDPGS

Regarding `O=C(NCCO)c1cc(C(=O)NCCO)cc(C(=O)NCCO)c1` [LM22A-4, N,N′,N′′-tris(2-hydroxyethyl)-1,3,5-benzenetricarboxamide, reference compound], the “neurotrophic activity in the presence of function-blocking anti-TrkB^ECD antibody” value in data set [1] is “reduction”. The CYP inhibition result with 8 different CYP enzymes is reported as “negative”. Further, the “AMES DNA mutagenesis” value in data set [2] is “negative”. For the same compound, the “hERG testing (cardiac toxicity)” value at hERG channels is recorded as “negative”.

For the compound `COCCN(C)C(=O)c1cc(C(=O)N(C)CCOC)cc(C(=O)N(C)CCOC)c1` [PTX-BD4-3, benzene-1,3,5-tricarboxylic acid tris-[(2-methoxy-ethyl)-methyl-amide]], the “maximum levels of neurotrophic activity” value in data set [1] (48 h, ViaLight and Tuj1 counts, normalized to 20 ng/ml BDNF) is 80-100 % of that of BDNF. For the same compound, the EC50 in data set [1] (Mus musculus, Hippocampal neuron, 48 h, ViaLight and Tuj1 counts, read-out: half-maximal effective concentration (EC50), neurotrophic activity) fell in the range of 300 to 500 nM. Further, the “neurotrophic activity in the presence of function-blocking anti-TrkB^ECD antibody” value in data set [1] was “reduction”. Also, in the data set on 8 different CYP enzymes, the CYP inhibition entry was “negative”. Also, the “AMES DNA mutagenesis” value in data set [2] is “negative; also recorded: no activity”. Moreover, the “hERG testing (cardiac toxicity)” value on hERG channels is “negative; also recorded: no activity”.

The record behind these values is paper PMC7710018, “Restoration of motor learning in a mouse model of Rett syndrome following long-term treatment with a novel small-molecule activator of TrkB” (Disease Models & Mechanisms, 2020).
